# Assay results as given in ChEMBL document CHEMBL1201862, “PubChem BioAssay data set” (2004).
# Activity calls are given as the source filed them.
# Assays:
# [1] = molecular target: T1, Sentrin-specific protease 8 (Homo sapiens, UniProt Q96LD8); assay type: functional;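 also: luminescence read-out of SENP8 inhibition, dose-response confirmation following an ultra-high-throughput screen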
# T1 sequence (Q96LD8 whole entry): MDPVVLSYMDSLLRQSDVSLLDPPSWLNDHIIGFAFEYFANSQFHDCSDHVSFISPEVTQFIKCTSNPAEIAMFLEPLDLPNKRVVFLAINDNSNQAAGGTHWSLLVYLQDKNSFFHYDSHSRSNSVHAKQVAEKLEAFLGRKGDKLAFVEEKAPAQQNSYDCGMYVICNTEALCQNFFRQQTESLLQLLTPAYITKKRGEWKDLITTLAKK
# [2] = molecular target: T2, Cysteine protease ATG4B (Homo sapiens, UniProt Q9Y4P1); assay type: functional;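 also: Fluorescence-based dose-response confirmation assay measuring inhibition of ATG4B activity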
# T2 sequence (Q9Y4P1 whole entry): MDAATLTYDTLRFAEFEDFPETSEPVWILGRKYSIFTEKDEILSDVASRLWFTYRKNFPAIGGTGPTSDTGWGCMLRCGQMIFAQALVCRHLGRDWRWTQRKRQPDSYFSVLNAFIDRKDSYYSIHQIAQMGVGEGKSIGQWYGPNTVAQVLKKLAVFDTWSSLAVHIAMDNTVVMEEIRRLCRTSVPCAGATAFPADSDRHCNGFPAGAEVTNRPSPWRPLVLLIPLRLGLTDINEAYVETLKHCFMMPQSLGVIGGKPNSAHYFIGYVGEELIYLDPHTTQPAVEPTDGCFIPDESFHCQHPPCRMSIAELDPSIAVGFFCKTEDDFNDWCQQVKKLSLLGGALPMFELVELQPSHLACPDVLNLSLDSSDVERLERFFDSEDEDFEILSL
# [3] = HepG2 cell cytotoxicity, dose response, cytotoxicity control for non-replicating M. tuberculosis project (AID 489018); assay type: functional; settings: Mycobacterium tuberculosis
# [4] = system: INS1; assay: beta cell apoptosis inhibitors, cytokine rescue, dose response, luminescence, retest (AID 449756); assay type: functional, cell-based; settings: Rattus norvegicus;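 also: cell death triggered by IL-1 beta plus TNF-alpha plus IFN-gamma mixture; protective hits raise ATP signal compared with cytokine alone wells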
# [5] = molecular target: Phospholipase A2 (Homo sapiens, UniProt P04054); assay type: functional;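 also: confirmatory dose-response counterscreen on phospholipase A2, testing hits that came from an ultra-high-throughput screen for ATG4B inhibitors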
# Chain of Phospholipase A2 (P04054 whole entry): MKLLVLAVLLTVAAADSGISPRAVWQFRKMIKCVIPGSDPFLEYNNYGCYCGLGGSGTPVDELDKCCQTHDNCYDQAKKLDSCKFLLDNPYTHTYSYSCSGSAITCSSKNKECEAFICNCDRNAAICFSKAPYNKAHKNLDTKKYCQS
# [6] = Luminescence Cell-Based Dose Response HTS to Identify Inhibitors of 5'UTR Stem-Loop Driven Prion Protein mRNA Translation in H4 Neuroglioblastoma Cells. [Related pubchem assays: 1827 (Project Summary), 1813 (Primary HTS)]; assay type: functional
# [7] = THP-1 cell cytotoxicity, dose response, cytotoxicity control for non-replicating M. tuberculosis project (AID 489025); assay type: functional
# [8] = molecular target: Mothers against decapentaplegic homolog 3 (Homo sapiens, UniProt P84022); assay: SMAD3 transcription factor inhibitors, dose response (AID 715); assay type: functional
# Chain of Mothers against decapentaplegic homolog 3 (P84022 whole entry): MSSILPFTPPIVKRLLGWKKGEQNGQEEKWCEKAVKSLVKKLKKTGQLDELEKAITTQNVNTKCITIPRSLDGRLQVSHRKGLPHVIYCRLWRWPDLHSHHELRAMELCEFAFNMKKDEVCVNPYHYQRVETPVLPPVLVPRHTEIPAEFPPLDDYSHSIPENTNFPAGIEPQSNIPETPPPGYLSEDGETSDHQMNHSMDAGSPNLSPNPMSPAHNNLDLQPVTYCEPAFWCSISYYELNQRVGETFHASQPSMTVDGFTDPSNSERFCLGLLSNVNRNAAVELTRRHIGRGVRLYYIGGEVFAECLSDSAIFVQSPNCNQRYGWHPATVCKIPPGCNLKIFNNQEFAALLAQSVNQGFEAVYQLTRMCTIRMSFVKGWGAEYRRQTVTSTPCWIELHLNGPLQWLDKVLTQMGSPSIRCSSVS
# [9] = molecular target: T3, Streptokinase A (Streptococcus pyogenes serotype M1, UniProt P10520); assay: S. pyogenes streptokinase expression inhibitors, potency, dose response, plasminogen activation absorbance, OD405 (AID 1914); assay type: functional, Streptococcus pyogenes M1 GAS;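 also: secreted streptokinase activity via plasminogen activation per viability signal from cell pellet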
# T3 sequence (P10520 whole entry): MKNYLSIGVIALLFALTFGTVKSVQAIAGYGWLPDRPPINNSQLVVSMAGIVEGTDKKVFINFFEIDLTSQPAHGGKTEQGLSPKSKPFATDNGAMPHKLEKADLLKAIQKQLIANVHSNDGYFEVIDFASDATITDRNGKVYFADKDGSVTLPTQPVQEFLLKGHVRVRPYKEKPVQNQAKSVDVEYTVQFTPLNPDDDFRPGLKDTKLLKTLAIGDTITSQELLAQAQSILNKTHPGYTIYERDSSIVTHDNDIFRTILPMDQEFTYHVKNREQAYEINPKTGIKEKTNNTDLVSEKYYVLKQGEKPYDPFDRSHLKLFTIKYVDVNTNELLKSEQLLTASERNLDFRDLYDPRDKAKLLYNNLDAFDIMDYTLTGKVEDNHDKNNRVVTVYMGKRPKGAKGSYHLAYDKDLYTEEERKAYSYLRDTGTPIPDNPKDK
# [10] = molecular target: Mitochondrial peptide methionine sulfoxide reductase (Bos taurus, UniProt P54149); assay: Absorbance-based biochemical high throughput dose response assay for activators of Methionine sulfoxide reductase A (MsrA).; assay type: functional
# Chain of Mitochondrial peptide methionine sulfoxide reductase (P54149 whole entry): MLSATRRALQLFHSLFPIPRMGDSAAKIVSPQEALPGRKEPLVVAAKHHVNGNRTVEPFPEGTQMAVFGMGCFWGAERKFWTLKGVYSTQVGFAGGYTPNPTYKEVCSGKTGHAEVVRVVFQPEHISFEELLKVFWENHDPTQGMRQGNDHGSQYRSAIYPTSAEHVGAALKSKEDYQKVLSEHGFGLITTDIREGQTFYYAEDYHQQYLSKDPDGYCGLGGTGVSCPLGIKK
# [11] = molecular target: Peroxisome proliferator-activated receptor gamma/Nuclear receptor corepressor 2 (Homo sapiens, UniProt P37231+Q9Y618); assay type: functional
# Chain of Peroxisome proliferator-activated receptor gamma/Nuclear receptor corepressor 2 (P37231 whole entry): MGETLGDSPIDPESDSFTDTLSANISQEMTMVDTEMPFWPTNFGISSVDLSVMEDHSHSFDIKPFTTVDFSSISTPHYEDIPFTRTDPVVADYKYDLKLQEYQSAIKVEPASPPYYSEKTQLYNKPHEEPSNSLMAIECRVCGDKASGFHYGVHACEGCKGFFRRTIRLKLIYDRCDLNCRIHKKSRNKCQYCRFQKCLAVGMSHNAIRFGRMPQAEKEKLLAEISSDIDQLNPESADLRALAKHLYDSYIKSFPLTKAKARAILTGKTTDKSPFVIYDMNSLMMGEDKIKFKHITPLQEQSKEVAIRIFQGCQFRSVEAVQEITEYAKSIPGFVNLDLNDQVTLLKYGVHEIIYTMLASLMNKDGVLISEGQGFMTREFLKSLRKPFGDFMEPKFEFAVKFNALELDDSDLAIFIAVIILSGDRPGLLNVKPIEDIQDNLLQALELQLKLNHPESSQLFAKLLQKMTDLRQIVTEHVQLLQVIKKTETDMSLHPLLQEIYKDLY
# Chain of Peroxisome proliferator-activated receptor gamma/Nuclear receptor corepressor 2 (Q9Y618 whole entry): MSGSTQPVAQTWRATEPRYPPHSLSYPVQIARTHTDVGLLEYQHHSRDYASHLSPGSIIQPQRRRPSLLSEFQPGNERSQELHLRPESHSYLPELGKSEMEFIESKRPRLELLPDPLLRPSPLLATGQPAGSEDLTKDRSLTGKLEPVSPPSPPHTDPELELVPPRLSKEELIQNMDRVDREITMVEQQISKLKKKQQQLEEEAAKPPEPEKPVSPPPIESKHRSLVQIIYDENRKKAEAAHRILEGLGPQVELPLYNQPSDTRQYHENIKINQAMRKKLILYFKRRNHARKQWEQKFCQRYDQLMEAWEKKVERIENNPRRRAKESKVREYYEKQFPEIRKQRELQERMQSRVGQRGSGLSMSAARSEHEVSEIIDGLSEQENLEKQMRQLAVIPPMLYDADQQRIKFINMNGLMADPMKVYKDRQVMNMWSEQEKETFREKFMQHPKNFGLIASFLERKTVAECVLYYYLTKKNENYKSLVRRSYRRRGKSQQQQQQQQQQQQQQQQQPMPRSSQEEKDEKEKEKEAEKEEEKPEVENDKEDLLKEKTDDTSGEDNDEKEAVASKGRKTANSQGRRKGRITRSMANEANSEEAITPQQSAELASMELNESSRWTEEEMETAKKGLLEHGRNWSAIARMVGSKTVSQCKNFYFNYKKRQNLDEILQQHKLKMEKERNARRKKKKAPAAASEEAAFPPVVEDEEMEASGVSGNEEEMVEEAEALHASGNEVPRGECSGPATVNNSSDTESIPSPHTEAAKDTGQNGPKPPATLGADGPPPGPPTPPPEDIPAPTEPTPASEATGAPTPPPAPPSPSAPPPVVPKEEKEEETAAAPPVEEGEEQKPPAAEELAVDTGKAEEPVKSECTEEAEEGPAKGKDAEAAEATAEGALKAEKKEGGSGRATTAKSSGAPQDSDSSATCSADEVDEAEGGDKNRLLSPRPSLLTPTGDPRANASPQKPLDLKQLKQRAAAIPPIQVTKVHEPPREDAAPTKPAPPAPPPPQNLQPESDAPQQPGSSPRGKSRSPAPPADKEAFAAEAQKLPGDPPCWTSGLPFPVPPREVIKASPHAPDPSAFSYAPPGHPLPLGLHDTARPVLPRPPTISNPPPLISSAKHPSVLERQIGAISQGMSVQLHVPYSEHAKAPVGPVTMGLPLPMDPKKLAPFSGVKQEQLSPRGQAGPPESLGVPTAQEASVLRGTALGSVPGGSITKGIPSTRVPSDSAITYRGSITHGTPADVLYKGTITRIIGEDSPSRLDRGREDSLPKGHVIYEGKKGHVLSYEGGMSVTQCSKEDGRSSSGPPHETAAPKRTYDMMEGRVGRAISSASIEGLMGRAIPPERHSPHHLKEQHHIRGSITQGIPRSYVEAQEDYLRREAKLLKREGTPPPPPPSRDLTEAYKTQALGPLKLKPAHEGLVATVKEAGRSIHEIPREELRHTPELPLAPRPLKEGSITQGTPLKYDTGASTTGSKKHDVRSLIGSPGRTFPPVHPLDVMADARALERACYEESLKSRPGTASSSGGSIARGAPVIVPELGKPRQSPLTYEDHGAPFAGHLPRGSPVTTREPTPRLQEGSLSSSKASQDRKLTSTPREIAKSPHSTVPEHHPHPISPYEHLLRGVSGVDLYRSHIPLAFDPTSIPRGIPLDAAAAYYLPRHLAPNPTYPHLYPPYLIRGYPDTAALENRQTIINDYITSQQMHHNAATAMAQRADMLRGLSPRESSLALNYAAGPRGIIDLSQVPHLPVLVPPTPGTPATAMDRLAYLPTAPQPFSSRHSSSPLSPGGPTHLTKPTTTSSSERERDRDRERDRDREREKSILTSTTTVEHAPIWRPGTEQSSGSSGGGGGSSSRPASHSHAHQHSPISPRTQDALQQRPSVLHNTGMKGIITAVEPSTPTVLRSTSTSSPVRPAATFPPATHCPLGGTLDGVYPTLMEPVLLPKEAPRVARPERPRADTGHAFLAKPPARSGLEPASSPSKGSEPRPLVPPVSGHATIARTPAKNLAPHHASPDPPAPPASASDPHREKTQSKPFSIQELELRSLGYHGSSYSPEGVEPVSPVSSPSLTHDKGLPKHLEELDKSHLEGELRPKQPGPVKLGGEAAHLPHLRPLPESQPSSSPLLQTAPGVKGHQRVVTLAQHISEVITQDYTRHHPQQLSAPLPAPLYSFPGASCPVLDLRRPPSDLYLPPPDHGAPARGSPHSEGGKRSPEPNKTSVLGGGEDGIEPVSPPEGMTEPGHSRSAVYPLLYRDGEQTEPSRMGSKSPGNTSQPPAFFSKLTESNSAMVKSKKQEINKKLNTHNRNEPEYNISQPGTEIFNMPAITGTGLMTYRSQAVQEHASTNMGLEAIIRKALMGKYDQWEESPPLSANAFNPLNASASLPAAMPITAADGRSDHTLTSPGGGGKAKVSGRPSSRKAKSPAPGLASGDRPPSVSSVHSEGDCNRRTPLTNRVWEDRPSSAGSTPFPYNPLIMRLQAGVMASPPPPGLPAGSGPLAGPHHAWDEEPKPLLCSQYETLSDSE
# [12] = molecular target: T4, 1-phosphatidylinositol 4,5-bisphosphate phosphodiesterase gamma-1 (Homo sapiens, UniProt P19174); assay: Counterscreen for inhibitors of phospholipase C isozymes (PLC-B3): Fluorescence-based biochemical high throughput dose response assay to identify inhibitors of phospholipase C isozymes (PLC-gamma1).
# T4 sequence (P19174 whole entry): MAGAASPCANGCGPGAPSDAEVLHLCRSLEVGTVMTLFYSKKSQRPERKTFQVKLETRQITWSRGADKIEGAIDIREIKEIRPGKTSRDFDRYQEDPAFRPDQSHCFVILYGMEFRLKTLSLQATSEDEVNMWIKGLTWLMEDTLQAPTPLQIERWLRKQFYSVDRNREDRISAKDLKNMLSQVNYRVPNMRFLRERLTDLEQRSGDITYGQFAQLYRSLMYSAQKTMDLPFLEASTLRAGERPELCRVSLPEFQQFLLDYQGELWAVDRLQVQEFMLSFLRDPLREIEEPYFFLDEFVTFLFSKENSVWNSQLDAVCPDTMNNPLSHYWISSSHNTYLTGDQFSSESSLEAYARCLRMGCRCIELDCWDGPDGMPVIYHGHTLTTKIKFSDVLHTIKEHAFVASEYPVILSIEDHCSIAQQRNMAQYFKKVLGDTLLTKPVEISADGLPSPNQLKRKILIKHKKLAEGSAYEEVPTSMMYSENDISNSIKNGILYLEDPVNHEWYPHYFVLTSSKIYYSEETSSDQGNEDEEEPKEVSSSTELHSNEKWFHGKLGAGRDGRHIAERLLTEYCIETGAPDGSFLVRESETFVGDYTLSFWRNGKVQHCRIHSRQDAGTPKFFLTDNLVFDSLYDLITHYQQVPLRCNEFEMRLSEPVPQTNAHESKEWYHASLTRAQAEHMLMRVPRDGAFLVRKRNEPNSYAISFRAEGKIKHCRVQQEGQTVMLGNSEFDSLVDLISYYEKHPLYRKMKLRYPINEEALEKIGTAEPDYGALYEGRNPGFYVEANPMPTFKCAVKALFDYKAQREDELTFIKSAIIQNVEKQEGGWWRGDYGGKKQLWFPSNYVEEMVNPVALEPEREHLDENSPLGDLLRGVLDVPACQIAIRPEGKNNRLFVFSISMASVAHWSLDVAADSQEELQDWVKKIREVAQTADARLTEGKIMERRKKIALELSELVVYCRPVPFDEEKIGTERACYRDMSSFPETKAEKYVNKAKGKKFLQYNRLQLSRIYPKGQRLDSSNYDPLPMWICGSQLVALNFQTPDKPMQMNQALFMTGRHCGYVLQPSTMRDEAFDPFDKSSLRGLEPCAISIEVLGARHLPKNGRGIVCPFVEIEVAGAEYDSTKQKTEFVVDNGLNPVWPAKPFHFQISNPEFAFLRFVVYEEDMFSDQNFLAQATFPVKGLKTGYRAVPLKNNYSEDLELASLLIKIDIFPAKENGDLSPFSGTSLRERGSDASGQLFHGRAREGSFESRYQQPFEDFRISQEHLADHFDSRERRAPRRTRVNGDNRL
smiles,measurement,setting,value
Oc1nc(Nc2ccccc2Cl)cc2ccccc12,IC50,[1],4.23 µM (active)
Cc1nc2c(=O)n(C)c(=O)nc-2n(C)n1,IC50,[2],3.73 µM (active)
same,CC50,[3],4.16 µM (active)
same,AC50,[4],695 nM (active)
same,IC50,[5],> 80 µM (inactive)
same,EC50,[6],251 nM (inconclusive)
same,CC50,[7],2.73 µM (active)
same,IC50,[8],38 nM (active)
same,EC50,[9],> 150 µM (not active)
same,EC50,[10],63.7 µM (inactive)
same,IC50,[11],> 39.8 µM (not active)
O=C(CCN1C(=O)/C(=C\c2ccco2)SC1=S)Nc1ccc(C(=O)O)c(O)c1,IC50,[12],> 122 µM (inactive)
